Drawing on ChEMBL document CHEMBL1806464, “Development of substrate analogue inhibitors for the human airway trypsin-like protease HAT” (Bioorg Med Chem Lett, 2011), this text covers Ki, inhibition and Activity for 39 compounds.

Test [1] addresses T1, Transmembrane protease serine 11D (Homo sapiens, UniProt O60235).
T1 sequence (O60235 whole entry): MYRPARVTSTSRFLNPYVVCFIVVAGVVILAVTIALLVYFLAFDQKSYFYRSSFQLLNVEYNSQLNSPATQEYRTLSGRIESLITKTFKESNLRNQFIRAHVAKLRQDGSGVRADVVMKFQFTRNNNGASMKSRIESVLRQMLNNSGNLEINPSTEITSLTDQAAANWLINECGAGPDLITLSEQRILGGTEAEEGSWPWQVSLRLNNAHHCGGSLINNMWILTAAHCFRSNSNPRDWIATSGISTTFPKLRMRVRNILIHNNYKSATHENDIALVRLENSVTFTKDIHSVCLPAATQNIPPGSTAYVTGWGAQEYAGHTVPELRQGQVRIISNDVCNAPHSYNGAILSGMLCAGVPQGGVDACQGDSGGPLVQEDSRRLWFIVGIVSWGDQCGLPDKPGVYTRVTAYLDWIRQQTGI
The experiment in a line: Inhibition of human recombinant airway trypsin-like protease HAT using D-cyclohexylalanine-Pro-Arg-AMC as substrate by fluorescence plate reader analysis.

The target of test [2] is Coagulation factor X (Homo sapiens, UniProt P00742). The test is described as follows: Inhibition of factor 10a.
Coagulation factor X, sequence (P00742 41-179 limits assumed): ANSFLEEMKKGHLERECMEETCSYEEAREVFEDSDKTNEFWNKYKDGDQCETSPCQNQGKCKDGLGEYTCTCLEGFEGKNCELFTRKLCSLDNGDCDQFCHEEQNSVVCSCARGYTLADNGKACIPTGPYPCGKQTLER
Coagulation factor X, sequence (P00742 235-488 limits assumed): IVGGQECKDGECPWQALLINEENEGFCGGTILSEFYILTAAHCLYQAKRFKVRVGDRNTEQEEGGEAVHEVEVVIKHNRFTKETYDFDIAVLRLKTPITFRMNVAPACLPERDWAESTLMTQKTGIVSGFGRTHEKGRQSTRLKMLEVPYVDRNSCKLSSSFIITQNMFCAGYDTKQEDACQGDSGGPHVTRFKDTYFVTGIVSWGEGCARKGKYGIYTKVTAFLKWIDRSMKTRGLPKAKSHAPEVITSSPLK
Test [3] deals with Prothrombin (Homo sapiens, UniProt P00734). The experiment in a line: Inhibition of thrombin.
Test [4] addresses Plasminogen (Homo sapiens, UniProt P00747). The test is described as follows: Inhibition of plasmin.
Test [5] deals with H3N2 subtype. The test is described as follows: Antiviral activity against Influenza A virus (A/Aichi/2/68 (H3N2)) virus infected in MDCK cells expressing airway trypsin-like protease HAT assessed as inhibition of viral replication at 1 uM after 24 hrs by immunostaining in presence of doxycycline relative to control. The class given is functional, organism-based. Particulars: A/Aichi/2/1968(H3N2).

For test [6], the system named is Influenza A virus. The test is described as follows: Antiviral activity against Influenza A virus (A/Hamburg/5/09 (H1N1)) virus infected in MDCK cells expressing airway trypsin-like protease HAT assessed as infected cells at 10 uM after 24 hrs by immunostaining in presence of doxycycline relative to control. The class given is functional.
For test [7], the system named is Influenza A virus. The experiment in a line: Antiviral activity against Influenza A virus (A/Memphis/14/96(H1N1)) infected in MDCK cells expressing airway trypsin-like protease HAT assessed as infected cells at 10 uM after 24 hrs by immunostaining in presence of doxycycline relative to control. The class given is functional, Influenza A virus (A/Memphis/14/1996(H1N1)).

The subject of test [8] is Influenza A virus. The test is described as follows: Antiviral activity against Influenza A virus (A/Hamburg/5/09 (H1N1)) virus infected in MDCK cells expressing airway trypsin-like protease HAT assessed as inhibition of viral replication at 1 uM after 24 hrs by immunostaining in presence of doxycycline relative to control. The class given is functional, organism-based.

Test [9] relates to Influenza A virus. The test is described as follows: Antiviral activity against Influenza A virus (A/Memphis/14/96(H1N1)) infected in MDCK cells expressing airway trypsin-like protease HAT assessed as inhibition of viral replication at 1 uM after 24 hrs by immunostaining in presence of doxycycline relative to control. Particulars: Influenza A virus (A/Memphis/14/1996(H1N1)). It counts as functional, organism-based.

Test [10] relates to H3N2 subtype. The test is described as follows: Antiviral activity against Influenza A virus (A/Aichi/2/68 (H3N2)) virus infected in MDCK cells expressing airway trypsin-like protease HAT assessed as infected cells at 10 uM after 24 hrs by immunostaining in presence of doxycycline relative to control. It counts as functional, A/Aichi/2/1968(H3N2).
The target in test [11] is Transmembrane protease serine 2 (Homo sapiens, UniProt O15393). The experiment in a line: Inhibition of recombinant catalytic domain of TMPRSS2 expressed in Escherichia coli using Dcyclohexylalanine- Pro-Arg-AMC as substrate by fluorescence plate reader analysis.
Transmembrane protease serine 2, sequence (O15393 1-255 limits assumed): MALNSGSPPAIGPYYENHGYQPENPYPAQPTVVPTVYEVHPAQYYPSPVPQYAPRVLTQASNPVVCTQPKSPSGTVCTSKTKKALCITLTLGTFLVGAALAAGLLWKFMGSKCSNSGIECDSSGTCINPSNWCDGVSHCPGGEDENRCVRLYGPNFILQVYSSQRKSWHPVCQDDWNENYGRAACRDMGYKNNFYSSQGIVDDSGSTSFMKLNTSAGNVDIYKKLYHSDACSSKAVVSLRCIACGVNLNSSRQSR
Transmembrane protease serine 2, sequence (O15393 256-492 limits assumed): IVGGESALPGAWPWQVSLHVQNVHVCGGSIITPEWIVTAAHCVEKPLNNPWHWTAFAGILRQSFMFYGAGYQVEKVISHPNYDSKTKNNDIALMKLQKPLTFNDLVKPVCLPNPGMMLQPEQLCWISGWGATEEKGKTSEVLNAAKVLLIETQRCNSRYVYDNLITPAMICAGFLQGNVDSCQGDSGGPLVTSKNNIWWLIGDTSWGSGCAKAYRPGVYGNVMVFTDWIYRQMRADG

Structures are written as SMILES. Activity calls are given as the source filed them. The calls are words filed in the database; no cut-off is given here.

Plasminogen, sequence (P00747 97-580 limits assumed): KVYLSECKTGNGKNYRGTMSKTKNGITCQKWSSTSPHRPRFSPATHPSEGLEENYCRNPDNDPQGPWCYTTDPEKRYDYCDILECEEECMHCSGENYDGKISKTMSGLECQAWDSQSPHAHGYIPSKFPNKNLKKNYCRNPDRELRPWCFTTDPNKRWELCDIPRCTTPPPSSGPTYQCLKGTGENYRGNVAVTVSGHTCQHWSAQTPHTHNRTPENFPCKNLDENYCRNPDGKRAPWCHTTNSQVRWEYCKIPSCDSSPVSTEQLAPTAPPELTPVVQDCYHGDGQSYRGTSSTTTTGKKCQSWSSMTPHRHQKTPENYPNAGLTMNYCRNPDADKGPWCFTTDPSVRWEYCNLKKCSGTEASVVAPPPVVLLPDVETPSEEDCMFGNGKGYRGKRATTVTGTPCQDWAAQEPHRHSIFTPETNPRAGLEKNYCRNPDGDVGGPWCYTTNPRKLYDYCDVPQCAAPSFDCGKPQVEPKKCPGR
Plasminogen, sequence (P00747 581-810 limits assumed): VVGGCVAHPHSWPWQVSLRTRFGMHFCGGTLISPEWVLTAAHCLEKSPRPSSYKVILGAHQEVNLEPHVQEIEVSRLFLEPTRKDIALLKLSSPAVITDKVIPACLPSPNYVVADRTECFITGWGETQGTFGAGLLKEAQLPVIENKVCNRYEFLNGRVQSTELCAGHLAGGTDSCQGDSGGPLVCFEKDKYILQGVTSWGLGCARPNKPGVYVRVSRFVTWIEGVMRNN

Turning to `N=C(N)NCCC[C@@H](NS(=O)(=O)Cc1ccccc1)C(=O)[C@H](CO)NCc1ccc(C(=N)N)cc1`, the Ki in [1] was found to be 34 nM; in [2] it was 14.5 nM; in test [3], 1610 nM; in test [4], 161 nM.

Regarding `[H]/N=C(\N)c1ccc(CNC(=O)[C@@H]2CCCN2C(=O)[C@@H](Cc2ccccc2)NS(=O)(=O)Cc2ccccc2)cc1`, the Ki in test [1] came to 98 nM.

For the compound `N=C(N)c1ccc(CNC(=O)[C@@H]2CCCN2C(=O)[C@@H](CC(=O)N2CCN(C(=O)OCc3ccccc3)CC2)NS(=O)(=O)Cc2ccccc2)cc1`, the Ki in test [1] is 135 nM.

For the compound `N=C(N)c1ccc(CNC(=O)[C@@H]2CCCN2C(=O)[C@@H](CC2CCCCC2)NS(=O)(=O)Cc2ccccc2)cc1`, the Ki in [1] came out at 108 nM.

Turning to `N=C(N)c1ccc(CNC(=O)[C@@H]2CCCN2C(=O)[C@@H](CCC(=O)N2CCN(c3ncccn3)CC2)NS(=O)(=O)Cc2ccccc2)cc1`, the inhibition result in test [5], in [8] and in test [9] was “Active” each time. Further, the Ki in test [1] is 17 nM; in test [2], 129 nM; in test [3], 5.2 nM; in test [4], 23100 nM. Further, the Activity in [6] worked out at 0.08%; in test [7] it was 1.35%; in test [10], 0.48%.

Turning to `N=C(N)c1ccc(CNC(=O)[C@@H]2CCCN2C(=O)[C@@H](CCCCNC(=O)OCc2ccccc2)NS(=O)(=O)Cc2ccccc2)cc1`, in test [1], the Ki was found to be 53 nM.

For `N=C(N)c1ccc(CNC(=O)[C@@H]2CCCN2C(=O)[C@@H](CC(=O)N2CCN(Cc3ccccc3)CC2)NS(=O)(=O)Cc2ccccc2)cc1`, the Ki in [1] came out at 158 nM.

Regarding `Cc1ccc(C)c(N2CCN(C(=O)C[C@@H](NS(=O)(=O)Cc3ccccc3)C(=O)N3CCC[C@H]3C(=O)NCc3ccc(C(=N)N)cc3)CC2)c1`, in [1], the Ki was determined as 73 nM.

As to `N=C(N)c1ccc(CNC(=O)[C@@H]2CCCN2C(=O)[C@@H](CC(=O)N2CCNCC2)NS(=O)(=O)Cc2ccccc2)cc1`, the Ki in [1] is 202 nM.

As for `N=C(N)c1ccc(CNC(=O)[C@@H]2CCCN2C(=O)[C@@H](CC(=O)N2CCN(CCO)CC2)NS(=O)(=O)Cc2ccccc2)cc1`, the Ki in test [1] amounted to 210 nM.

In the case of `CC(C)C[C@H](NCc1ccc(C(=N)N)cc1)C(=O)[C@@H](CCCN=C(N)N)NS(=O)(=O)Cc1ccccc1`, in [1], the Ki stood at 47 nM.

Take `N=C(N)c1ccc(CN[C@@H](CCCCNC(=O)OCc2ccccc2)C(=O)[C@@H](CCCN=C(N)N)NS(=O)(=O)Cc2ccccc2)cc1`: the Ki in [1] came to 34 nM.

As to `C[C@H](NCc1ccc(C(=N)N)cc1)C(=O)[C@@H](CCCN=C(N)N)NS(=O)(=O)Cc1ccccc1`, the inhibition constant Ki in [1] worked out at 30 nM; in [2], 1.4 nM; in test [3], 74 nM; in test [4] it was 590 nM.

As for `N=C(N)c1ccc(CNC(=O)[C@@H]2CCCN2C(=O)[C@@H](CCC(=O)N2CCNCC2)NS(=O)(=O)Cc2ccccc2)cc1`, the Ki in test [1] was determined as 68 nM; in test [2], 565 nM; in test [3] it was 13.5 nM; in test [4], 114 nM.

As for `N#Cc1ccc(C[C@@H](NS(=O)(=O)Cc2ccccc2)C(=O)N2CCC[C@H]2C(=O)NCc2ccc(C(=N)N)cc2)cc1`, in test [1], the Ki is 311 nM.

As to `CC[C@H](C)[C@H](NCc1ccc(C(=N)N)cc1)C(=O)[C@@H](CCCN=C(N)N)NS(=O)(=O)Cc1ccccc1`, in test [1], the Ki was determined as 23 nM.

Take `N=C(N)c1ccc(CNC(=O)[C@@H]2CCCN2C(=O)[C@@H](CCCCN=C(N)N)NS(=O)(=O)Cc2ccccc2)cc1`: the Ki was 2.7 nM in [2], 0.39 nM in [3] and 17.5 nM in [4].

Consider `N=C(N)c1ccc(CNC(=O)[C@@H]2CCCN2C(=O)[C@@H](CC(=O)N2CCN(c3ncccn3)CC2)NS(=O)(=O)Cc2ccccc2)cc1`, for which, in test [1], the Ki came to 43 nM.

In the case of `N=C(N)c1ccc(CNC(=O)[C@@H]2CCCN2C(=O)[C@@H](CC(=O)N2CCOCC2)NS(=O)(=O)Cc2ccccc2)cc1`, in test [1], the Ki was 183 nM.

Consider `N=C(N)c1ccc(CNC(=O)[C@H](CCCCNC(=O)OCc2ccccc2)NC(=O)[C@@H](CO)NS(=O)(=O)Cc2ccccc2)cc1`, for which the Ki in test [1] stood at 51 nM.

For the compound `N=C(N)c1ccc(CNC(=O)[C@@H]2CCCN2C(=O)[C@@H](CCc2ccccc2)NS(=O)(=O)Cc2ccccc2)cc1`, the Ki in test [1] was 63 nM.

For the compound `CCC(NCc1ccc(C(=N)N)cc1)C(=O)[C@@H](CCCNC(=N)N)NS(=O)(=O)Cc1ccccc1` (stereo partly specified), the inhibition result in [5], in [8] and in test [9] was “Active” in each case. Moreover, the Ki in test [1] was 14 nM; in test [2], 2.1 nM; in test [3] it was 29 nM; in test [4], 3030 nM; in [11], 53 nM. Besides, the values for the Activity in [6], in test [7] and in test [10] were 0.21%, 2% and 0.86%, respectively.

Regarding `CC(C)[C@@H](NS(=O)(=O)Cc1ccccc1)C(=O)N1CCC[C@H]1C(=O)NCc1ccc(C(=N)N)cc1`, the Ki in [1] is 76 nM.

`CCC[C@H](NCc1ccc(C(=N)N)cc1)C(=O)[C@@H](CCCNC(=N)N)NS(=O)(=O)Cc1ccccc1`: the inhibition entry in test [5], in test [8] and in test [9] was “Active” each time. In addition, the Ki in test [1] was determined as 15 nM; in test [2] it was 37 nM; in test [3], 68 nM; in test [4] it was 2110 nM; in test [11] it was 68 nM. The Activity is 2% in test [6], 7.8% in test [7] and 8.2% in test [10].

On to `CC(C)[C@H](NCc1ccc(C(=N)N)cc1)C(=O)[C@@H](CCCNC(=N)N)NS(=O)(=O)Cc1ccccc1`, for which the Ki in test [1] was 22 nM; in [2], 21 nM; in test [3], 66 nM; in [4], 2810 nM.

Consider `N=C(N)c1ccc(CNC(=O)[C@@H]2CCCN2C(=O)[C@@H](CCC(=O)N2CCN(C(=O)OCc3ccccc3)CC2)NS(=O)(=O)Cc2ccccc2)cc1`, for which the Ki in test [1] worked out at 38 nM; in [2], 397 nM; in test [3], 9.8 nM; in [4] it was 1160 nM.

`N=C(N)c1ccc(CNC(=O)CNC(=O)[C@@H](CCCN=C(N)N)NS(=O)(=O)Cc2ccccc2)cc1`: the Ki in test [1] is 430 nM.

As for `N=C(N)NCCC[C@H](NCc1ccc(C(=N)N)cc1)C(=O)[C@@H](CCCNC(=N)N)NS(=O)(=O)Cc1ccccc1`, the Ki in test [1] worked out at 457 nM.

As to `N=C(N)c1ccc(CNC(=O)[C@@H]2CCCN2C(=O)[C@@H](CCCCN)NS(=O)(=O)Cc2ccccc2)cc1`, the Ki in test [1] turned out to be 40 nM; in test [2], 52 nM; in [3], 1 nM; in [4], 63 nM.

For `N=C(N)c1ccc(CNC(=O)[C@@H]2CCCN2C(=O)[C@@H](CC(=O)O)NS(=O)(=O)Cc2ccccc2)cc1`, the Ki in test [1] worked out at 1420 nM.

For the compound `CC(C)(C)OC(=O)CC[C@@H](NS(=O)(=O)Cc1ccccc1)C(=O)N1CCC[C@H]1C(=O)NCc1ccc(C(=N)N)cc1`, the inhibition constant Ki in [1] stood at 36 nM; in [2], 31 nM; in test [3] it was 6.7 nM; in test [4], 1520 nM.

For the compound `N=C(N)c1ccc(CNC(=O)[C@@H]2CCCN2C(=O)[C@@H](Cc2ccc(C(=N)N)cc2)NS(=O)(=O)Cc2ccccc2)cc1`, the Ki in [1] was 168 nM.

With `CC(C)C[C@@H](NS(=O)(=O)Cc1ccccc1)C(=O)N1CCC[C@H]1C(=O)NCc1ccc(C(=N)N)cc1`, in test [1], the Ki turned out to be 120 nM.

In the case of `CC(C)(C)OC(=O)C[C@@H](NS(=O)(=O)Cc1ccccc1)C(=O)N1CCC[C@H]1C(=O)NCc1ccc(C(=N)N)cc1`, in test [1], the Ki amounted to 38 nM.

As for `N=C(N)NCCC[C@@H](NS(=O)(=O)Cc1ccccc1)C(=O)[C@H](CC(=O)O)NCc1ccc(C(=N)N)cc1`, in [1], the Ki was 422 nM.

For `CC(C)N1CCN(C(=O)C[C@@H](NS(=O)(=O)Cc2ccccc2)C(=O)N2CCC[C@H]2C(=O)NCc2ccc(C(=N)N)cc2)CC1`, the Ki in test [1] turned out to be 221 nM.

In the case of `CN(C)CCCN1CCN(C(=O)C[C@@H](NS(=O)(=O)Cc2ccccc2)C(=O)N2CCC[C@H]2C(=O)NCc2ccc(C(=N)N)cc2)CC1`, the Ki in test [1] was 149 nM.

Consider `N=C(N)NCCC[C@@H](NS(=O)(=O)Cc1ccccc1)C(=O)[C@H](Cc1ccccc1)NCc1ccc(C(=N)N)cc1`, for which the Ki in test [1] stood at 57 nM.

As for `CC(C)(C)OC(=O)C[C@H](NCc1ccc(C(=N)N)cc1)C(=O)[C@@H](CCCNC(=N)N)NS(=O)(=O)Cc1ccccc1`, in test [1], the Ki was determined as 512 nM.

Broadly, the Ki is the equilibrium dissociation constant of an inhibitor or competing ligand from its target.
